Tests used:
[1] = system: human placental IGF-I receptor; assay: Human placental IGF-I receptor binding assay (competition with 125I IGF-I); settings: human placental membranes
Protocol: (§1) Metab., Vol.67, pgs. 194-197, the entire teaching of which is hereby incorporated by reference, except that the incubation was performed at 4° C. for 18 hours and membranes were collected on a Skatron Cell Harvester (commercially available from Skatron, Inc., Sterling, Va.). The glucose transport assay in rat adipocytes was performed in substantial accordance with the teachings of Kashwagi, M., et al., (1983) J. Clin, Invest., Vol.72, pgs. 1246-1254, the entire teaching of which is hereby incorporated by reference.

rat adipocytes = assay: Glucose transport assay in rat adipocytes; assay type: cell-based; settings: glucose uptake by adipocytes
Protocol: as §1

[2] = system: fasted, male, lean Sprague-Dawley rats; assay: In vivo hypoglycemic effect in fasted rats; set-up: species or system rat; settings: for Max. hypoglycemic effect (percent) 1 hour: 1 hour after subcutaneous administration; for Max. hypoglycemic effect (percent) 1 hour / Max. hypoglycemic effect (percent) 2 hours: percent change from zero time corrected for control group; for Max. hypoglycemic effect (percent) 1 hour / Max. hypoglycemic effect (percent) 2 hours / ED50 1 hour / ED50 2 hours: mean ± S.E.M.; for Max. hypoglycemic effect (percent) 2 hours: 2 hours after subcutaneous administration; for ED50 1 hour: half the maximal hypoglycemic activity 1 hour after subcutaneous administration; for ED50 2 hours: half the maximal hypoglycemic activity 2 hours after subcutaneous administration
Protocol: The data presented in Table III were obtained in tests carried out in fasted, male, lean Sprague-Dawley rats (Charles River Laboratories).
In vivo activity of ACB-proinsulins was determined in fasted rats. Male, lean Sprague-Dawley rats (obtained from Charles River Laboratories, Wilmington, Mass. 01887) 190-210 g bodyweight, were fasted for 16 hours. Ten animals were chosen at random and divided into two groups of five rats each. The control group received a subcutaneous saline injection (0.1 ml per 100 g bodyweight) while the experimental groups received a saline injection containing the test peptide. Blood (0.1 ml) was obtained from the tail of each rat for glucose determination (Sigma Diagnostics, glucose [Trinder], address) before administration of the peptide and again at 30 minutes, 1, 2, 3 and 4 hours after administration of the peptide.
The mean percent change from zero time plus or minus S.E.M. in blood glucose for control and treated groups of rats were calculated and the final results expressed by adjusting the change in the experimental group for the change in the control group. The effect of 5 to 7 different doses of each peptide was routinely determined.

[3] = system: human placental insulin receptor; assay: Human placental insulin receptor binding assay (competition with 125I insulin); settings: placental membrane insulin receptors
Protocol: as §1

| Substance | ED50 IGF-I Receptor [1] [nM] | ED50 Glucose Transport (rat adipocytes) [nM] | Max. hypoglycemic effect (percent) 1 hour [2] [%] | Max. hypoglycemic effect (percent) 2 hours [2] [%] | ED50 1 hour [2] [nM] | ED50 2 hours [2] [nM] | time at which blood glucose levels returned to baseline ([2]; s.c. administration) [h] | time of maximal hypoglycemic response after subcutaneous administration ([2]; s.c. administration) [h] | ED50 Insulin Receptor [3] [nM] | Relative biological action to insulin 1 hour ([2]; 1 hour, subcutaneous, insulin = 100.0) | Relative biological action to insulin 2 hours ([2]; 2 hours, subcutaneous, insulin = 100.0) |
| --- | --- | --- | --- | --- | --- | --- | --- | --- | --- | --- | --- |
| IGF-I: human IGF-I, reference ligand of the IGF-I receptor | 0.45 |  |  |  |  |  |  |  |  |  |  |
| Insulin: human insulin, two-chain protein hormone, reference |  | 0.043 | 59.0 ± 4.3 | 45.7 ± 6.7 | 1.0 ± 0.01 | 1.6 ± 0.09 | 3 to 4 | 1 |  |  |  |
| Proinsulin: naturally occurring human (BCA) proinsulin, reference | 10000 |  | 55.1 ± 2.6 | 61.0 ± 4.0 | 91. ± 1.7 | 8.2 ± 0.8 |  | 2 | 20.4 | 14.3 ± 2.8 | 19.5 ± 1.8 |
